Reference: PubChem BioAssay AID1361 (SRMLSC, 2008)
The source made the active and inactive calls. No rule for the calls is given here.

Experiment: mitochondrial fusion inhibitors, confirmation, cell-based, chemical genetic, wild-type and mutant (AID 1361)
Details: Cell-based mitochondrial fusion phenotype, imaging
[1] = mutant cells, measured here: mutant cell line IC50

SMILES | IC50 (WT cells) | IC50 [1] [µM]
CCOC(=O)c1c(C)[nH]c(C)c1C(=O)COC(=O)/C=C/c1cccc(C(F)(F)F)c1 | 20.6 µM | > 25
CC(Oc1ccc2oc3ccccc3c2c1)C(=O)NC12CC3CC(CC(C3)C1)C2 (stereo unspecified) | 9.61 µM | 15.7
N#Cc1c(NC(=S)NC(=O)C2CCCC2)sc2c1CCCCC2 | 10.5 µM | > 25
COc1ccc(OCC(O)CNCc2ccco2)cc1 (stereo unspecified) | > 25 µM (inactive) | > 25
CN(C)c1ccc(O)c2c1CC1CC3[C@@H](N(C)C)C(=O)C(C(N)=O)=C(O)[C@]3(O)C(=O)C1=C2O (stereo partly specified) | > 25 µM (inactive) | > 25
Fc1ccccc1Nc1nc2c(s1)CCc1ccccc1-2 | 17.7 µM | 19.1
O=C1/C(=C/c2cccc3ccccc23)CCCc2ccccc21 | 17.3 µM | > 25
O=C(NCc1ccco1)c1cc(-c2ccccc2)on1 | > 25 µM (inactive) | > 25
CCCCOP(=O)(c1ccc(N(C)C)cc1)C(Nc1ccccc1)c1ccccc1 (stereo unspecified) | 14.1 µM | > 25
OC1(c2cccc(C(F)(F)F)c2)CCN(c2ncnc3c2[nH]c2ccccc23)CC1 | 18 µM | > 25
COc1ccccc1NC(=O)c1cccc(NC(=O)c2ccco2)c1 | > 25 µM (inactive) | > 25
CC(=O)N(C)c1nnc(-c2cnccn2)s1 | > 25 µM (inactive) | > 25
CCc1ccccc1N(C1=NCCCS1)S(=O)(=O)c1ccc(C(C)(C)C)cc1 | 7.58 µM | > 25
Cc1ccc(-c2nnc(SCC(=O)N3CCOCC3)nc2-c2ccc(C)cc2)cc1 | > 25 µM (inactive) | > 25
COc1ccc(C(=O)NN(C)c2nc(-c3ccccc3)nnc2C(F)(F)F)cc1 | > 25 µM (inactive) | > 25
CC(C)(C)N=C1NN=C(c2cc3ccccc3o2)CS1 | – | > 25
Cc1ccc2c(CSc3nnc(C4CC4)n3N)cc(=O)oc2c1C | > 25 µM (inactive) | > 25
Clc1ccc(C(c2nnnn2C2CCCCC2)N(Cc2cccnc2)Cc2ccco2)cc1 (stereo unspecified) | 15.5 µM | > 25
CCCCCCn1c(N)c(C(=O)NCCN2CCOCC2)c2nc3ccccc3nc21 | > 25 µM (inactive) | > 25
O=C(CSc1nc2cc(Cl)ccc2o1)NCCc1ccccc1 | > 25 µM (inactive) | > 25
O=C(O)CCc1ccc(-c2ccc(F)cc2)n1Cc1ccco1 | > 25 µM (inactive) | > 25

SMILES | IC50 (WT cells) | IC50 [1] [µM]
O=C(Nc1ccccc1Sc1ccccc1)c1ccc(F)cc1 | > 25 µM (inactive) | > 25
COC(=O)C1=C(Nc2ccc(C)cc2)C=C(C)C(C(=O)OC)C1c1ccc(F)cc1 (stereo unspecified) | 6.62 µM | > 25
COc1ccc(S(=O)(=O)N2CCCCCC2)cc1C(=O)OCc1c(C)noc1C | > 25 µM (inactive) | > 25
Cc1cccc(OCC(=O)Nc2nc3ccc([N+](=O)[O-])cc3s2)c1C | > 25 µM (inactive) | > 25
CS(=O)(=O)N(CC(=O)NCc1ccc2c(c1)OCO2)c1ccc(Cl)cc1 | > 25 µM (inactive) | > 25
NC(=O)COC(=O)c1ccc(Cl)c(S(=O)(=O)N(Cc2ccccc2)c2ccc(Cl)cc2)c1 | 18.1 µM | > 25
O=C(CNC(=S)N(Cc1ccccc1)Cc1ccccc1F)NCc1ccccc1 | 17.7 µM | > 25
Cc1nc2ccccc2nc(C)c1=NOCc1ccc(Cl)cc1Cl | 24.2 µM | > 25
CCOCCCNC(=S)N1CCCN(c2nc3c(C)c(C)ccc3cc2C#N)CC1 | 11.8 µM | > 25
Fc1ccc(N2N=C(c3cccs3)CC2c2ccco2)c(F)c1 (stereo unspecified) | 15.8 µM | 22.3
CC1CCCCN1C(=O)Cn1cc(/C=C2/C(=O)Nc3ccccc32)c2ccccc21 (stereo unspecified) | 24.4 µM | > 25
COc1ccc(S(=O)(=O)N2CCC[C@H]2C(=O)NC2=NCCS2)cc1 | > 25 µM (inactive) | > 25
CCCOC(=O)CN1C(=O)c2ccccc2C1=O | > 25 µM (inactive) | > 25
CC1CCN(c2nc(Cl)nc(Nc3ccc([N+](=O)[O-])cc3)n2)CC1 | 7.41 µM | > 25
OC(CC1CC12c1ccccc1-c1ncccc12)(c1ccccc1)c1ccccc1 (stereo unspecified) | 13.8 µM | > 25
Cc1ccc(S(=O)(=O)Nc2ccc(N=Nc3ccc(O)cc3)cc2)cc1 | 17 µM | > 25
CCOc1ccc(S(=O)(=O)N2CCN(C(=O)c3cc4c(s3)CCCC4)CC2)cc1 | 4.98 µM | > 25
CN(C)c1ncc(S(=O)(=O)c2ccc(Cl)cc2)c(-c2ccc(Cl)cc2Cl)n1 | 9.56 µM | 15.3
Fc1ccc(N2CCN(c3nc(CN4CCOCC4)nc4scc(-c5ccccc5)c34)CC2)cc1 | 19.6 µM | 24
Cc1ccc(N=Cc2c(O)n(-c3ccc4c(c3)OCO4)c(=O)c3ccccc23)cc1 | > 25 µM (inactive) | > 25
COc1ccccc1CNc1nc2nc(C)c(C)c(=O)n2[nH]1 | > 25 µM (inactive) | > 25

SMILES | IC50 (WT cells) | IC50 [1] [µM]
CCCOC(=O)c1ccc(Oc2cn[nH]c2-c2ccc(OC)cc2O)cc1 | 11.3 µM | 21.9
CCN1C(=O)S/C(=C/c2c(OCc3ccc(C(=O)O)cc3)ccc3ccccc23)C1=O | 18.7 µM | > 25
Cc1nc2ccccc2c2oc(C(=O)Nc3ccc(C(C)C)cc3)cc12 | > 25 µM (inactive) | > 25
O=C(NCc1ccccc1)c1ccc(C(=O)N(C2CCCCC2)C2CCCCC2)cc1 | > 25 µM (inactive) | > 25
CCC(=O)Nc1ccc(N2CCN(CC)CC2)c(Cl)c1 | > 25 µM (inactive) | > 25
CC1CC(C)CN(C2CCN(Cc3cccnc3)CC2)C1 (stereo unspecified) | > 25 µM (inactive) | > 25
COc1cc(Nc2nc(-c3ccccc3)c3cc(C)ccc3n2)cc(OC)c1OC | 10.6 µM | > 25
Cc1ccc(C(C)C)cc1OCC(=O)N/N=C/c1ccc2c(c1)OCCO2 | 18.3 µM | > 25
CC(=O)Cc1nsc(NC(=O)c2ccc(-c3ccc(Cl)c(Cl)c3)o2)n1 | > 25 µM (inactive) | > 25
CCc1cccc(C)c1NC(=S)NCCc1c(C)[nH]c2ccc(C)cc12 | > 25 µM (inactive) | > 25
CC(C)CNC(=S)N1CCN(C(c2ccccc2)c2ccccc2)CC1 | 14.7 µM | > 25
C=CCN1C(=O)C(CC(=O)Nc2ccc(OCCC)cc2)N(CCCN2CCN(Cc3ccccc3)CC2)C1=S (stereo unspecified) | > 25 µM (inactive) | > 25
CCCC12CN3CCN(CC(C3)/C1=N\NC(=O)c1ccc(C(C)(C)C)cc1)C2 | 6.28 µM | 20.2
Cc1cc(=O)[nH]c(SCC(N)=O)c1C#N | > 25 µM (inactive) | > 25
COC(=O)Nc1snnc1C | > 25 µM (inactive) | > 25
c1ccc(CC2CCN(c3nnnn3-c3ccccc3)CC2)cc1 | > 25 µM (inactive) | > 25
Cc1ccc(-n2nc3c(c2NC(=O)c2ccc4c(c2)OCO4)CSC3)c(C)c1 | > 25 µM (inactive) | > 25
CC(C)/C(=N/Nc1ccccc1[N+](=O)[O-])c1ccccc1 | > 25 µM (inactive) | > 25
COc1ccc(C2C3=C(CC(C)(C)CC3=O)Oc3ncn(Cc4ccccc4)c(=N)c32)cc1 (stereo unspecified) | 12.6 µM | > 25
CC(C)c1ccccc1OCC(=O)NC1CCCc2ccccc21 (stereo unspecified) | 20.4 µM | > 25
N=c1c2c(n(Cc3ccc(F)cc3)c3c1CCC3)CCC2 | 11.2 µM | > 25

SMILES | IC50 (WT cells) | IC50 [1] [µM]
COc1cc(/C=N/NC(=O)CCc2ccccc2)ccc1O | > 25 µM (inactive) | > 25
CCN(c1ccc2c(c1)OCO2)S(=O)(=O)c1cc(Br)cc2c1N(C(=O)C1CC1)CC2 | 13.3 µM | > 25
COc1ccc(/C=C/c2nc3cc(-c4ccccc4)ccc3o2)cc1O | 11.6 µM | > 25
COc1ccc(Br)cc1CN(C)CC(=O)Nc1cc(Cl)cc(Cl)c1 | 9.17 µM | 22.1
CCN(Cc1ccccc1)C(c1ccc(C(F)(F)F)cc1)c1nnnn1C(C)(C)C (stereo unspecified) | 8.69 µM | > 25
CC(=O)N1CCC(O)(c2cccc(C(F)(F)F)c2)CC1 | > 25 µM (inactive) | > 25
Cc1ccc(/C=C/C(=O)N2CCC(Cc3ccccc3)CC2)cc1 | 15.1 µM | > 25
Cc1nn(-c2cc(C)c3ccccc3n2)c2c1C1C(C2)C1(C)C (stereo unspecified) | > 25 µM (inactive) | > 25
CCN1CCN(c2ccc(NC(=O)c3ccc4c(c3)OCO4)cc2)CC1 | > 25 µM (inactive) | > 25
C=CCNC1=C(Cl)C(=O)N(c2cccc(Cl)c2Cl)C1=O | > 25 µM (inactive) | > 25
O=C(COC(=O)c1ccc([N+](=O)[O-])s1)Nc1ncc(C(F)(F)F)cc1Cl | 18.3 µM | > 25
CC(=O)C(N=Nc1ccccc1)(Sc1nnc(-c2ccccc2)n1-c1ccccc1)C(C)=O | 6.6 µM | > 25
CCN(CC)CCNC(=O)Cn1c(-c2ccccn2)nc2ccccc21 | – | > 25
Cc1ccc(OCc2n[nH]c(=S)n2-c2ccccc2)cc1C | 24.4 µM | > 25
CC(C)(C)CC(C)(C)NC(=O)Nc1cccc([N+](=O)[O-])c1 | > 25 µM (inactive) | > 25
COC(=O)c1cn(N(C)c2ncc(C(F)(F)F)cc2Cl)c(=O)c2ccccc12 | 15.8 µM (inactive) | 15.5
Cc1cccc(N/N=C(\C=N\N)C(=O)c2ccc(Br)cc2)c1 | > 25 µM (inactive) | > 25
O=C(NC(=S)Nc1ccc(S(=O)(=O)NC2CCCCC2)cc1)c1cccs1 | 17.6 µM | > 25
CCS(=O)(=O)Nc1ccc(-c2cc(-c3ccccc3)c3cc(C)ccc3n2)cc1 | 7.26 µM | > 25
Cc1ccc(O)c(C(=O)/C=C/c2ccc3c(c2)OCCCO3)c1 | 12.3 µM | > 25
O=C(NCc1ccco1)c1cccnc1-c1nc2ccccc2s1 | > 25 µM (inactive) | > 25
